Where two headings read alike, the source gives them in different places.
What was measured:
Format in all cases: cell-based
[1] = tested on: SARS-CoV-2 Omicron BA.1 variant; assay: microbe, parasite or virus in culture; conditions: Severe acute respiratory syndrome coronavirus 2, SARS-CoV-2 Omicron B.1.1.529
SARS-CoV-2_M:Q185K = tested on: SARS-CoV-2_M:Q185K
SARS-CoV-2_M:W55F = tested on: SARS-CoV-2_M:W55F
SARS-CoV-2_M:L29F = tested on: SARS-CoV-2_M:L29F
SARS-CoV-2 Delta variant = assay: microbe, parasite or virus in culture; conditions: Severe acute respiratory syndrome coronavirus 2; SARS-CoV-2 Delta B.1.617.1
SARS-CoV-2_M:A85S = tested on: SARS-CoV-2_M:A85S
SARS-CoV-2 (B1 variant) = assay: microbe, parasite or virus in culture; conditions: Severe acute respiratory syndrome coronavirus 2, 48 h
SARS-CoV-2_M:M91K = tested on: SARS-CoV-2_M:M91K
SARS-CoV-2 M:A98D = tested on: SARS-CoV-2 M:A98D
SARS-CoV-2_M:L90W = tested on: SARS-CoV-2_M:L90W
[2] = read-out: EC50, production of viral RNA
[3] = read-out: EC90, production of viral RNA

Compound | EC50 [1] | Potency shift (EC50 fold change ± SD vs recombinant WT virus) (SARS-CoV-2_M:Q185K) | Potency shift (EC50 fold change ± SD vs recombinant WT virus) (SARS-CoV-2_M:W55F) | Potency shift (EC50 fold change ± SD vs recombinant WT virus) (SARS-CoV-2_M:L29F) | EC50 (SARS-CoV-2 Delta variant) | Potency shift (EC50 fold change ± SD vs recombinant WT virus) (SARS-CoV-2_M:A85S) | EC50 (SARS-CoV-2 (B1 variant); [2]) | EC90 (SARS-CoV-2 (B1 variant); [3]) | Potency shift (EC50 fold change ± SD vs recombinant WT virus) (SARS-CoV-2_M:M91K) | Potency shift (EC50 fold change ± SD vs recombinant WT virus) (SARS-CoV-2 M:A98D) | Potency shift (EC50 fold change ± SD vs recombinant WT virus) (SARS-CoV-2_M:L90W) | EC50 (SARS-CoV-2 (B1 variant); read-out: EC50, RNA copy numbers (printed in Fig. 1c)) | EC90 (SARS-CoV-2 (B1 variant); read-out: EC90, RNA copy numbers (printed in Fig. 1c))
C[C@H]1Cn2ncc(C(=O)Nc3cccc(C#N)c3)c2C(=O)N1c1ccc(C(F)(F)c2ccccc2)cc1 [JNJ-9676, (S)-N-(3-cyanophenyl)-5-(4-(difluoro(phenyl)methyl)phenyl)-6-methyl-4-oxo-4,5,6,7-tetrahydropyrazolo[1,5-a]pyrazine-3-carboxamide] | 26 nM | 5.55 ± 1.92 fold change | 0.62 ± 0.26 fold change | 5.57 ± 0.42 fold change | 14 nM | 0.64 ± 0.21 fold change | 94 ± 3.4 nM | 132 ± 36.7 nM | 10.03 ± 3.28 fold change | 2.02 ± 0.58 fold change | 2.47 ± 1.48 fold change | – | –
CC(C)(C)[C@H](NC(=O)C(F)(F)F)C(=O)N1C[C@H]2[C@@H]([C@H]1C(=O)N[C@H](C#N)C[C@@H]1CCNC1=O)C2(C)C [nirmatrelvir, reference compound] | – | – | – | – | – | – | 109 ± 55.6 nM | 268 ± 112 nM | – | – | – | 109 nM | 268 nM
